For test [1], the target named is T1, PDE3B (Homo sapiens, UniProt Q13370). As to the kind of experiment: SPR (Biacore S51), direct binding and competition with Epac-1 peptides; cAMP rise in HAECs lost on PDE3B siRNA. To be noted: read-out: % maximal inhibition. On the technique in general: In SPR one partner is held on a chip, and binding of the other changes the refractive index at the surface.
Test [2] addresses T1, PDE3B. Kind of test: SPR (Biacore S51), competition with Epac-1 peptides on immobilized PDE3B peptide. The test is classed as binding. To be noted: read-out: % maximal inhibition.

T1 sequence (Q13370 1-25): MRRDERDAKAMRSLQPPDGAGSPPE
T1 sequence (O95398 whole entry partner): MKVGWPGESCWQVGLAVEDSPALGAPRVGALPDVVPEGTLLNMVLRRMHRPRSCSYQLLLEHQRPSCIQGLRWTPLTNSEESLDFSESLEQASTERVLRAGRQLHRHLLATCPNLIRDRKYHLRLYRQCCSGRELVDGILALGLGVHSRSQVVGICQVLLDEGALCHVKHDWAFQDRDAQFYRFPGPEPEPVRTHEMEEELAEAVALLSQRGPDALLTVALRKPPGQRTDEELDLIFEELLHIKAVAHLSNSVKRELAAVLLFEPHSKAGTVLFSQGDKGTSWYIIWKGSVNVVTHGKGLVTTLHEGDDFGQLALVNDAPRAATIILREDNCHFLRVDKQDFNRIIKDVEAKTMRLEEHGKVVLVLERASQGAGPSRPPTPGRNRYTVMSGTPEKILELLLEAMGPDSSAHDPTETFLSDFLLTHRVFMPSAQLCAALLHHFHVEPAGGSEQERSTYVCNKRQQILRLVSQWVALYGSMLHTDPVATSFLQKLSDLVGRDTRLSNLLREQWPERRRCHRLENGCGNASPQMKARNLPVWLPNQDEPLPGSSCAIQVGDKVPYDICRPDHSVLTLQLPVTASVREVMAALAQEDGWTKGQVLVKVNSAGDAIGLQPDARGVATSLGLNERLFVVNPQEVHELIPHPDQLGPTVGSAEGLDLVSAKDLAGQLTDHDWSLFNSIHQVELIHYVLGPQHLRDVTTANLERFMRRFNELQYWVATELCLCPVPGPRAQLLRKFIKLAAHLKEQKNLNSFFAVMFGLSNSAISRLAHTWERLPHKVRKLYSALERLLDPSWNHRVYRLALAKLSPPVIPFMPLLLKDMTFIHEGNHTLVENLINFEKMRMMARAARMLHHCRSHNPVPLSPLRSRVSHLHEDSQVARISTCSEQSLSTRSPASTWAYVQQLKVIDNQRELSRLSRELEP

Consider `O=C1CCc2cc(OCCCCc3nnnn3C3CCCCC3)ccc2N1` [cilostazol, 6-[4-(1-cyclohexyl-1H-tetrazol-5-yl)butyloxy]-3,4-dihydroquinolin-2-(1H)-one], for which the Emax in test [1] was found to be 70%.
For `CN(C(=O)CCCOc1ccc2[nH]c(=O)ccc2c1)C1CCCCC1` [cilostamide], in test [2], the Emax was 63%.
On the same count and under the same terms, for `Cc1[nH]c(=O)c(C#N)cc1-c1ccncc1` [milrinone] the value was 60%.

The values are drawn from PMC4504471, “Cilostazol Induces PGI2 Production via Activation of the Downstream Epac-1/Rap1 Signaling Cascade to Increase Intracellular Calcium by PLCε and to Activate p44/42 MAPK in Human Aortic Endothelial Cells” (PLoS ONE, 2015).
